# From patent publication US11820973B2, “Methods and system for interfering with viability of bacteria and related compounds and compositions” (CALIFORNIA INSTITUTE OF TECHNOLOGY, priority 2011, dated 2023)
# “Also recorded” adds a separate entry of the source.
# Assays:
# [1] = system: P. aeruginosa PA14 wild type; assay: Swarming motility, wild type; assay type: cell-based, Pseudomonas aeruginosa; conditions: 100 μM in the swarming agar
# Procedure: (§1) FIG. 6. Δphz1/2 has increased swarming motility. Quantification of swarming motility. Images of three swarming plates for each strain or condition were captured, exported to Adobe Photoshop and the agar surface covered by the swarms was quantified using the Analysis Tools.
# (§2) Swimming, swarming and twitching motilities were determined as previously described.
# [2] = system: P. aeruginosa PA14 Δphz1/2 colonies; assay: Colony biofilm morphology and surface coverage, Δphz1/2; assay type: cell-based, Pseudomonas aeruginosa; conditions: for Effect on rugosity and surface coverage of colonies: 0.2 M of either compound added to the agar
# [3] = system: P. aeruginosa PA14 phenazine null strain (Δphz); assay: Flow cell biofilm development, phenazine null strain, 1% TSB; conditions: 10 μM PCA in the medium flow of the Δphz mutant; by day 6
# [4] = system: P. aeruginosa PA14 wild-type colonies; assay: Colony biofilm morphology, wild type; assay type: cell-based, Pseudomonas aeruginosa; conditions: 0.2 M of either compound added to the agar
# Procedure: FIG. 8. […] Each day colonies from three independent experiments were scanned and their surface coverage was determined. Representative images of colonies at day 2, 4 and 6 are shown (A; scale bar is 1 cm). The data in (B) show the average surface coverage and standard deviation for the three independent experiments. (C) Phenazine titrations. […] Surface coverage of colonies from three independent experiments was determined after incubation at 20° C. for 7 days. Bars indicate the standard deviation.
# Colony biofilms were grown on agar containing 1% tryptone as previously described. Three colonies from independent spottings were documented for 8 days using an Epson scanner.
# [5] = system: P. aeruginosa PA14 Δphz1/2; assay: Swarming motility, Δphz1/2; assay type: cell-based, Pseudomonas aeruginosa; conditions: 100 μM in the swarming agar
# Procedure: as §1, §2
# [6] = system: P. aeruginosa PA14 wild type; assay: Flow cell biofilm development, wild type, 1% TSB with or without conalbumin; conditions: wild type; for Rescue of the conalbumin-induced biofilm defect: 10 μM phenazine added to conalbumin-treated 1% TSB, 6 days
# [7] = system: P. aeruginosa PA14 biofilm; assay: MBEC assay, anaerobic biofilm prevention; assay type: cell-based, Pseudomonas aeruginosa
# Procedure: (§3) In some examples, biofilm prevention and dissolution were measured via a high-throughput biofilm assay (MBEC Physiology and Genetics Assay) consisting of a 96-well plate into which a 96-peg plastic lid fits. This lid also fits over a standard 96-well plate, which was subsequently used to test the efficacy of iron chelators. Inoculum was prepared by diluting (30-fold) a 1.0 McFarland suspension of P. aeruginosa PA14 in TSB. 150 μl, was dispensed into each of the 60 inner wells, while 200 μl, of sterile trypticase soy broth (TSB) was placed in each perimeter well. For dissolution experiments, plates were incubated at 37° C. for 24 h, and were transferred to an anaerobic chamber for 24 h at 37° C. in anaerobic TSB containing 50 mM KNO3. Biofilms were then exposed to conalbumin and/or Ferrozine® for 24 h. Each treatment was complemented with the addition of 80 μM ferrous ammonium sulfate. After treatment, lids were rinsed once in 50 mM HEPES, air dried for 10 min and quantified by crystal violet staining. For biofilm prevention, anaerobic inoculum was amended with conalbumin and/or Ferrozine®. Media was replaced every 24 h by transferring the MBEC lid to a sterile plate containing growth media+/− treatments, and biofilms were allowed to develop for 168 h. Biomass was quantified as described above. Biological triplicates and six technical replicates (n=18) were used for each treatment.
# [8] = system: P. aeruginosa PA14 mature biofilms; assay: MBEC assay, dissolution of mature biofilms; assay type: cell-based, Pseudomonas aeruginosa; conditions: 100 or 200 μM Ferrozine®; 24 h exposure
# Procedure: as §3
# [9] = system: P. aeruginosa; assay: Planktonic growth rates with iron chelators; assay type: cell-based, Pseudomonas aeruginosa
# [10] = system: P. aeruginosa PA14 Δphz mutant; assay: Intracellular NADH/NAD^+ ratio in stationary phase cultures; assay type: cell-based, Pseudomonas aeruginosa; conditions: for Effect on intracellular NADH/NAD^+ ratios: stationary phase, 30 mM nitrate, pyocyanin in the micromolar range
# Procedure: (A) Growth and pyocyanin production for wild type P. aeruginosa PA14 grown aerobically in 10 ml LB in 18×150 mM tubes. (B) NADH/NAD^+ ratios for cultures grown under the same conditions as those described in part (A). At 7 hours, pyocyanin production in the wild type cultures was visible by eye. 45 μM (half the expected final concentration) was added to the Δphz cultures to be tested for complementation, and 15 mM KNO3 was added to cultures to be tested for the effect of an additional electron acceptor. At 9 hours, pyocyanin in the wild type cultures had increased to near-maximum concentrations, so a second dose of pyocyanin or KNO3 was added to the appropriate cultures, for final concentrations of 90 μM and 30 mM, respectively. Water was added to negative controls. Eleven hours after inoculation, and 2 hours after the addition of the final dose of pyocyanin, NAD(H) was extracted and assayed for each culture. (C), NADH/NAD^+ ratios for cultures treated as in part (B), but with varying concentrations of pyocyanin added. (D) NADH and NAD^+ concentrations for cultures described in (B), normalized to OD (500 nm). Error bars represent the standard deviations of triplicate samples. OD, optical density. wt, wild type.
# Two×1 ml of culture were sampled into two separate microcentrifuge tubes and centrifuged at 16,000×g for 1 min. Supernatant was removed and pellets were resuspended in 300 μl of 0.2 M NaOH (for NADH extraction) or 0.2 M HCl (for NAD^+ extraction). […] Supernatants were transferred to fresh tubes and stored at −80° C. until quantification.
# A master reagent mix was prepared with 1× Bicine buffer (2.0 M, pH 8.0), 8× water, 1×80 mM EDTA, 2×100% EtOH, 2×4.2 mM thiazolyl blue (MTT), and 4×16.6 mM phenazine ethosulfate. […] The microtiter plate was incubated at 30° C., mixed by brief shaking, and read every 30-60 seconds for absorbance at 570 nm, which is the spectral peak of MTT that increases upon reduction. Slopes arising from plots of absorbance at 570 nm over time were generated for NADH and NAD^+ standards as well as all samples. […]
# [11] = system: P. aeruginosa PA14 Δphz mutant; assay: Pyruvate excretion, HPLC of culture filtrates; assay type: cell-based, Pseudomonas aeruginosa; conditions: 50 μM pyocyanin added to the Δphz mutant upon entry into stationary phase
# Procedure: FIG. 13. Wild type P. aeruginosa PA14 excretes pyruvate in stationary phase, and addition of pyocyanin to Δphz mutant cultures restores the pyruvate excretion phenotype. Cultures were inoculated into MOPS synthetic medium amended with 50 mM glucose (initial OD (500 nm)=0.03). To complement pyruvate excretion, 50 μM pyocyanin was added to the Δphz culture at the time when pyocyanin reached its maximum concentration in the wild type cultures (approximately 12 hours after inoculation). 20 μl of culture filtrates at the 24-hour time point were loaded onto an anion exchange column and subjected to an isocratic gradient in 5 mM H2SO4. Pyruvate peaks (1305, 1310) are indicated by arrows. The elution time of pyruvate drifts slightly but averages around 10.5 minutes. Results shown are representative of three separate experiments. Other peak identities are described in the text.
# Two hundred μl were sampled from MOPS-glucose cultures (10 ml in an 18×150 mm test tube) at regular intervals and filtered (0.2 μm pore). In cases where repeated sampling from the same culture would alter the total culture volume by more than 10%, multiple identical cultures were inoculated from the same pre-culture and sampled sequentially. […] Compounds were detected by UV absorbance at 210 nm. Absolute concentrations of pyruvate were calculated using a standard curve for pyruvate diluted in MOPS buffer. […]
# [12] = system: Pseudomonas aeruginosa genes/operons; assay: DNA microarrays and quantitative RT-PCR; assay type: cell-based; conditions: P. aeruginosa PA14
# Text: Strikingly, mexGHI-opmD and PA2274 were previously shown to be regulated by the PA14 quorum sensing network that controls the production of virulence factors (including phenazines). Through mutational analysis, it is shown that pyocyanin is the physiological signal for the upregulation of these quorum sensing controlled genes during stationary phase and that the response is mediated by the transcription factor SoxR. Our results implicate phenazines as signaling molecules in both P. aeruginosa PA14 and PAO1. Examples are shown in the paper: Dietrich et al. 2006, The phenazine pyocyanin is a terminal signaling factor in the quorum sensing network of Pseudomonas aeruginosa, Molecular Microbiology Vol. 61, No. 5, page 1308-1321, incorporated herein by reference in its entirety.
# [13] = system: P. aeruginosa PA14 Δphz1/2; assay: Flow cell biofilms in 10% LB, COMSTAT analysis; assay type: cell-based, Pseudomonas aeruginosa
# Procedure: Flow cell biofilms were grown under constant flow at 22° C. in 1.5×4×34 mm flow cells. Continuous flow of 10% LB was supplied with a peristaltic pump at a constant rate of […]. An early stationary-phase culture was diluted to an optical density at 500 nm of around 0.1 and 300 μl were inoculated into the flow cell. Strains expressing eyfp constitutively were used to visualize the biofilms. Upon inoculation, cells were allowed to attach in the absence of flow for 1.5 h before flow was resumed. Developing biofilms were imaged in 3 dimensions using a Leica confocal microscope. eYFP was excited with a 488 nm laser beam kept at constant intensity throughout the experiment, and emission from 510 to 618 nm was collected. Routinely, the Applicant observed that the distribution of bacterial cells throughout the colonized surface varied depending on the region of the flow cell, probably due to factors such as flow or accumulation of planktonic cells. To assure reproducibility, all images were acquired from an area set in the middle of the flow cell. Three images of duplicate flow cell lines were recorded and at least two independent experiments were performed.
# To measure the impact of phenazines on biofilm formation directly, a flow cell system was first used to grow wild-type and Δphz1/2 biofilms. In this system, the wild type formed heterogeneous biofilms that after 4 days developed large and abundant microcolonies (FIG. 7A). Biofilms of Δphz1/2 were flatter and consisted of fewer and smaller aggregates scattered throughout the field of view (FIG. 7B). The morphology of 4-day-old biofilms was analyzed using COMSTAT. A fixed threshold value and connected volume filtration were used for all image stacks. Table 6 summarizes the values calculated for mean biofilm thickness, substratum coverage, number of microcolonies at the substratum, surface-to-volume ratio and maximum biofilm thickness for three independent experiments. […] PCA was not tested under these conditions. The mean thickness, the number of microcolonies and the total biomass volume all increased, reaching numbers similar or even higher than those observed for the wild type (Table 6).
# [14] = system: P. aeruginosa PA14 siderophore null strain (ΔpvdAΔpchE); assay: Flow cell biofilm development, siderophore null strain, 1% TSB; conditions: 10 μM PYO
# [15] = 4 day-old biofilms, Δphz1/2, 25 μM pyocyanin
structure (smiles),measurement,setting,value
"O=C(O)c1cccc2nc3ccccc3nc12 [PCA, Phenazine-1-carboxylic acid]",Effect on swarming motility,[1],had no effect on the wild type
same,Effect on surface coverage of colonies,"[2]; 0.1M PCA, titration",sufficient to decrease surface coverage of Δphz1/2 colonies to wild-type levels
same,Effect on rugosity and surface coverage of colonies,[2],significantly decreased rugosity and surface coverage of Δphz1/2 colonies
same,Effect on surface coverage of colonies,[2]; higher concentrations of PCA (up to 0.4M),had no additional effects
same,Increase of biofilm biomass,[3],four times
same,Effect on the structure of colonies,[4],did not noticeably affect the structure of wild-type colonies
same,Effect on swarming motility,[5],significantly decreased the motility of the Δphz1/2 mutant
same,Rescue of the conalbumin-induced biofilm defect,[6],rescued the defect
same,Increase of biofilm biomass compared to biofilms treated with conalbumin alone,"[6]; PCA added to conalbumin-treated medium, day 6",13 factor
same,Wild type biofilm development with PCA added to the control medium,[6]; no conalbumin,developed similarly with respect to structure and biomass regardless of whether PCA was added
"O.O=S(=O)([O-])c1ccc(-c2nc(-c3ccccn3)nnc2-c2ccc(S(=O)(=O)O)cc2)cc1.[Na+] [Ferrozine®, 3-(2-Pyridyl)-5,6-diphenyl-1,2,4-triazine-p,p′-disulfonic acid monosodium salt hydrate]",Reduction of biofilm accumulation,"[7]; 100 μM Ferrozine®, ˜10 μM Fe(II) and 10 μM Fe(III) present",24%
same,Reduction of biofilm accumulation,[7]; 200 μM Ferrozine®,reduced it slightly further
same,Dissolution of mature biofilm,[8],~20%
same,Effect on planktonic growth rates,[9],Neither compound affected planktonic growth rates
"O=[N+]([O-])[O-].[K+] [Nitrate, KNO3]",Effect on intracellular NADH/NAD^+ ratios,[10],effected decreases in intracellular NADH/NAD^+ ratios
"Cn1c2cccc(=O)c-2nc2ccccc21 [PYO, Pyocyanin]",Pyruvate excretion phenotype,[11],complemented the pyruvate excretion phenotype
same,Effect on gene expression,[12],elicits the upregulation of genes/operons that function in transport; also recorded: downregulates genes involved in ferric iron acquisition
same,Effect on Δphz1/2 flow cell biofilms,[13]; 25 μM pyocyanin,larger microcolonies and thicker biofilms resulted
same,% Coverage at substratum,[13]; [15],15.2 ± 2.46%
same,Average colony volume,[13]; [15],8170 μm^3
same,Average size of colonies at substratum,[13]; [15],102.6 ± 31 μm^2
same,Average thickness,[13]; [15],5.6 ± 1.6
same,Maximum thickness,[13]; [15],57.5 ± 1.9
same,Roughness coefficient,[13]; [15],1.3
same,Surface to volume ratio,[13]; [15],6.6 ± 0.6 μm^2/μm^3
same,Total biomass,"[13]; 4 day-old biofilms, Δphz1/2, 25 μM pyocyanin in the medium from the beginning",4.3 ± 1 μm^3/μm^2
same,Number of microcolonies,"[13]; 4 day-old biofilms, Δphz1/2, 25 μM pyocyanin, minimum microcolony size at the substratum 10 μm^2",8 ± 1.5
same,Effect on swarming motility,[1],had no inhibitory effect on swarming of either the wild type or Δphz1/2
same,Increased surface coverage compared to wild-type colonies,[2]; 0.1 M pyocyanin,50%
same,Effect on rugosity and surface coverage of colonies,[2],significantly decreased rugosity and surface coverage of Δphz1/2 colonies
same,Agar surface covered more than wild-type colonies,[2]; pyocyanin 0.2M or higher,35%
same,Effect on NADH/NAD^+ ratio,[10]; 90 μM oxidized pyocyanin added to Δphz mutant cultures,reduced the NADH/NAD^+ ratio to the wild type level
same,Effect on intracellular NADH/NAD^+ ratios,[10],effected decreases in intracellular NADH/NAD^+ ratios
same,Effect on the structure of colonies,[4],did not noticeably affect the structure of wild-type colonies
same,Rescue without Fe(OH)3(s) relative to rescue with Fe(OH)3(s) addition,[14],2 times
same,Effect on swarming motility,[5],had no inhibitory effect on swarming of either the wild type or Δphz1/2
same,Rescue of the conalbumin-induced biofilm defect,[6],did not rescue the conalbumin-induced biofilm defect
